Assay results taken from US20230274811A1, “METHODS OF MAKING PROSTATE CANCER TREATMENT DECISIONS” (Progenics Pharmaceuticals, Inc., priority 2020, published 2023).
Values joined by “and” are separate entries in the source; they are usually repeats but may differ in a detail not shown here. Identical values can stand only once.

How the values were obtained:
high-risk PCa = assay: OSPREY Cohort A sub-analysis: TNM staging by 18F-DCFPyL PET/CT at initial staging; assay type: in vivo; details: 252 men
Description: Three central, blinded, and independent readers evaluated the ^18F-DCFPyL scans.

[1] = test system: pelvic lymph node metastases; assay: OSPREY Cohort A: 18F-DCFPyL PET/CT detection of pelvic lymph node metastases vs histopathology; assay type: in vivo, men; details: for NPV % (95% CI) / PPV % (95% CI) / Sensitivity % (95% CI) / Specificity % (95% CI): N=252
Description: Histopathology served as the reference standard to which imaging findings were compared. FIG. 1 provides information regarding the study design and cohorts.
Imaging findings were compared to histopathology as the truth standard.
In OSPREY, 268 patients at high risk for pelvic lymph node metastasis who were planned for initial definitive therapy underwent PyLARIFY imaging. […] PyLARIFY and baseline conventional imaging reader interpretations were compared to pathologic staging of pelvic nodal metastases.

[2] = test system: PCa recurrence or metastases; assay: OSPREY Cohort B sub-analysis: staging changes vs conventional imaging; assay type: in vivo, men
Protocol: Methods ^18F-DCFPyL-PET/CT was evaluated in 117 men with radiologic evidence of local recurrence or metastatic disease on baseline anatomical imaging (CT, MRI) or whole-body bone scintigraphy and in whom at least one lesion was deemed amenable to biopsy. […] Based on TNM staging: prostatic (T), pelvic LN (N), extra-pelvic LN (M1a), bone (M1b) and other visceral organs/soft tissue (M1c), ^18F-DCFPyL-PET/CT detection rates including lesion counts were systematically analyzed. Three central, blinded, and independent readers evaluated the ^18F-DCFPyL scans.

O=C(O)CC[C@H](NC(=O)N[C@@H](CCCCNC(=O)c1ccc([18F])nc1)C(=O)O)C(=O)O [18F-DCFPyL, 2-(3-{1-carboxy-5-[(6-[^18F]fluoro-pyridine-3-carbonyl)-amino]-pentyl}ureido)-pentanedioic acid]
patients upstaged to N1 or M1 disease (high-risk PCa): 22% | pts staged M1a (high-risk PCa): 0.4% | pts staged M1b (high-risk PCa): 9.1% | pts staged M1c (high-risk PCa): 1.2% | pts staged with M1 disease (high-risk PCa): 10.7% | pts staged with N1 disease (high-risk PCa; no known nodal/metastatic disease on standard imaging): 14.7% | NPV, range among three readers ([1]; Cohort A, n=252 evaluable): 81.4-83.8% and 81-84% | PPV, range among three readers ([1]; Cohort A, n=252 evaluable): 78.1-90.5% and 78-91% | Sensitivity, range among three readers ([1]; Cohort A, n=252 evaluable): 30.6-41.9% and 31-42% | Specificity, range among three readers ([1]; Cohort A, n=252 evaluable): 96.3-98.9% and 96-99% | Sensitivity, range among three readers ([1]; Cohort A, restricted to median lymph node metastases >4 mm): 51.7-65.5% | NPV % (95% CI) ([1]; Reader 1): 84 (80, 89) % | PPV % (95% CI) ([1]; Reader 1): 87 (70, 95) % | Sensitivity % (95% CI) ([1]; Reader 1): 42 (30, 54) % | Specificity % (95% CI) ([1]; Reader 1): 98 (95, 99) % | NPV % (95% CI) ([1]; Reader 2): 81 (76, 86) % | PPV % (95% CI) ([1]; Reader 2): 91 (70, 99) % | Sensitivity % (95% CI) ([1]; Reader 2): 31 (19, 42) % | Specificity % (95% CI) ([1]; Reader 2): 99 (96, 100) % | NPV % (95% CI) ([1]; Reader 3): 83 (78, 87) % | PPV % (95% CI) ([1]; Reader 3): 78 (64, 93) % | Sensitivity % (95% CI) ([1]; Reader 3): 40 (28, 53) % | Specificity % (95% CI) ([1]; Reader 3): 96 (94, 99) % | up-staged pts with extra-pelvic biopsy confirmed M1 by pathology ([2]; 10/11): 91% | baseline M1 pts upstaged to a higher M1 sub-stage ([2]; 10/64): 16% | baseline M1 pts down-staged to M0 ([2]; 18/82): 22% | pts up-staged from M0 to M1 ([2]; 19/33 M0 at baseline by conventional imaging): 58%
